# Results reported in the PolyMetriX glass transition set.
# ± gives the standard deviation of the reports.
row,Structure (SMILES),glass transition temperature [°C]
1,*CC(*)(C)C(=O)OCCCCCCCC(C)C (repeat unit) [Poly(isodecyl methacrylate)],-41
2,*CC(*)C(=O)NC(C)CC (repeat unit) [Poly(N-sec-butylacrylamide)],117

# Remark: another data set of the same source
row,Structure (SMILES),glass transition temperature [°C]
1,*C(=O)c1ccc2c(c1)C(=O)N(c1ccc(C(=O)Oc3ccc4ccccc4c3-c3c(OC(=O)c4ccc(N5C(=O)c6ccc(*)cc6C5=O)cc4)ccc4ccccc34)cc1)C2=O (repeat unit),273.50
2,*Oc1cccc(S(=O)(=O)c2ccc(Oc3cccc4c3C(=O)N(c3cccc(N5C(=O)c6cccc(*)c6C5=O)c3)C4=O)cc2)c1 (repeat unit),266.00
3,*C(=O)c1ccc2c(c1)C(=O)N(c1ccc(Cc3cccc(N4C(=O)c5ccc(*)cc5C4=O)c3)cc1)C2=O (repeat unit),292.00

# Remark: another data set of the same source
row,Structure (SMILES),glass transition temperature [°C]
1,*c1ccc2c(c1)C(CCCCCCCC)(CCCCCCCC)c1cc(-c3ccc(-c4ccc(*)s4)s3)ccc1-2 (repeat unit),102.00
2,*c1cc2c(s1)c1sc(-c3sc(-c4ccc(-c5cc(CCCCCC)c(*)s5)c5nsnc45)cc3CCCCCC)cc1n2CC(CC)CCCC (repeat unit),90.00
3,*c1ccc2c(c1)C(CCCCCCCC)(CCCCCCCC)c1cc(-c3ccc(-c4ccc(-c5ccc(*)s5)c5nsnc45)s3)ccc1-2 (repeat unit),126.00
4,*c1ccc2c(c1)N(CC(CCCCCCCC)CCCCCCCCCC)C(=O)/C2=C1/C(=O)N(CC(CCCCCCCC)CCCCCCCCCC)c2cc(-c3ccc(-c4ccc(*)s4)s3)ccc21 (repeat unit),65.00
5,*c1ccc2c(c1)C(CCCCCCCC)(CCCCCCCC)c1cc(-c3ccc(-c4c(-c5ccccc5)c(-c5ccccc5)c(-c5ccc(*)s5)c5nc(-c6ccccc6)c(-c6ccccc6)nc45)s3)ccc1-2 (repeat unit),192.00

# Remark: another data set of the same source
row,Structure (SMILES),glass transition temperature [°C]
1,*C=C(*)c1ccccc1 (repeat unit) [Poly(phenylacetylene)],51

# Remark: another data set of the same source
row,Structure (SMILES),glass transition temperature [°C]
1,*CCCCCCO* (repeat unit) [Polyoxyhexamethylene ],-71.6 ± 3.5
2,*CC(*)(C)C(=O)OCC(C)C (repeat unit) [Poly(isobutyl methacrylate) ],47.4 ± 0.7
3,*CC(*)c1cccc(CO)c1 (repeat unit) [Poly(m-hydroxymethyl styrene) ],124.4 ± 0.7
4,*CC(*)c1ccc(C(C)CC)cc1 (repeat unit) [Poly(p-sec-butyl styrene) ],85.4 ± 0.7
5,*CC(*)c1ccc(OC)cc1C (repeat unit) [Poly(4-methoxy-2-methyl styrene) ],87.4 ± 3.5
6,*CC(*)c1ccccc1OCCCCCCCC (repeat unit) [Poly(o-n-octoxy styrene) ],12 ± 1.4
